In PMC9395490, “An open-label, crossover study to compare different formulations and evaluate effect of food on pharmacokinetics of pimitespib in patients with advanced solid tumors” (Investigational New Drugs, 2022):
Where two headings read alike, the source gives them in different places.

Tests used:
[1] = PK evaluation period, Cohort 1: single dose of Formulation A vs Formulation B under fasting conditions (crossover); type: in vivo, patients with advanced solid tumors
Procedure: This clinical, pharmacological, multicenter study was conducted in Japan and consisted of two cohorts (Cohorts 1 and 2) and two periods. The patients were first assigned to the pharmacokinetic evaluation period to investigate PK parameters of each formulation (Cohort 1) or the effect of food (Cohort 2), and then to the consecutive administration period (Supplementary Fig. 1).
In both cohorts, a randomized cross-over design was used.
For fasting conditions, patients were required to fast at least 10 h before dosing and at least 4 h after dosing and abstain from drinking water 1 h before and after administration, excluding the water consumed at the time of dosing. For fed conditions, patients were required to fast for at least 10 h before dosing and at least 4 h after dosing (except for the scheduled study meal) and abstain from drinking for 1 h before and after administration, except for drinking water. The study drug was administered within 30 min of completing the meal. The study meal was a high-fat (approximately 50% of the total caloric content of the meal) and high-calorie (572–715 kcal) meal considering the weight ratio of Japanese to American individuals. The meal’s nutritional value was adjusted based on the body weight of Japanese patients according to the US FDA standard guidance. It was recommended that study drug dosing be done with 100–200 (usually 150) mL of water.
Patients underwent hematologic, coagulation, biochemical laboratory examinations, urinalysis, electrocardiogram, ophthalmologic examination, and vital sign and body weight assessments. Blood collection occurred before pimitespib administration and at 0.5, 1, 2, 4, 6, 8, 10, 24, and 48 h after administration at the first and second doses.
For Cohort 1 analyses, the values of the natural log-transformed PK parameters (Cmax, AUClast, AUCinf, terminal elimination rate constant [λz], and mean residence time) were analyzed using analysis of variance (ANOVA), using Phoenix® WinNonlin® Ver. 8.1. […] The time to maximum plasma concentration (tmax) was not transformed and was analyzed using Wilcoxon’s signed-rank test, conducted using EXSUS version 10.0.3. The significance level was set at 5%.

[2] = PK evaluation period, Cohort 2: food effect, single dose of Formulation A under fed vs fasting conditions (crossover); type: in vivo, patients with advanced solid tumors
Procedure: For fasting conditions, patients were required to fast at least 10 h before dosing and at least 4 h after dosing and abstain from drinking water 1 h before and after administration, excluding the water consumed at the time of dosing. For fed conditions, patients were required to fast for at least 10 h before dosing and at least 4 h after dosing (except for the scheduled study meal) and abstain from drinking for 1 h before and after administration, except for drinking water. The study drug was administered within 30 min of completing the meal. The study meal was a high-fat (approximately 50% of the total caloric content of the meal) and high-calorie (572–715 kcal) meal considering the weight ratio of Japanese to American individuals. […]
For the analyses related to Cohort 2, the ANOVA model included treatment (fasting and fed conditions), treatment period, and treatment sequence as fixed effects, and patients nested within treatment sequence as a random effect. The GMR and 90% CI of the fed condition to the fasting condition were calculated.

[3] = test system: patients with advanced solid tumors; design: method as in PMID 30679388; details: phase I; cited from earlier work
[4] = test system: patients with advanced GIST; design: method as in PMID 31536852; details: phase II, advanced GIST failed or intolerant to imatinib, sunitinib, regorafenib; cited from earlier work
[5] = test system: patients with advanced GIST; design: method as in doi:10.1200/JCO.2021.39.15_suppl.11524; details: phase III, cited from earlier work

inter-subject CV% for AUCinf [1]: 54.4% | inter-subject CV% for AUClast [1]: 52.6% | inter-subject CV% for Cmax [1]: 63.8% | intra-subject CV% for AUCinf [1]: 24.9% | intra-subject CV% for AUClast [1]: 24.4% | intra-subject CV% for Cmax [1]: 28.5% | AUC under fed conditions, fold higher than under fasting conditions [2]: ~1.6 fold | Cmax under fed conditions, fold higher than under fasting conditions [2]: approximately 1.9 fold
SMILES: CCc1cc(C(N)=O)ccc1-n1nc(C(C)C)c2c(-n3cnc(-c4cnn(C)c4)c3)ccnc21 [pimitespib, Pimitespib]
patients with GIST achieving a partial response [3]: one | patients with non-small cell lung cancer achieving a partial response [3]: two | median PFS [4]: 4.4 months | median PFS ([5]; advanced GIST refractory or intolerant to imatinib, sunitinib, regorafenib): 2.8 months | hazard ratio (HR) for PFS ([5]; pimitespib vs placebo): 0.51
